Structures are written as SMILES.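 These data come from cells grown in 96-well plates and exposed to compound for 48 hours at five concentrations. TGI denotes the concentration required for complete inhibition of growth.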 Where a SMILES comes first, the peptide text is derived from it. The star is where a group is joined. Boc = CC(C)(C)OC(=O)*

Holding throughout (assay): NCI tumour cell line growth inhibition, 48 h
For test [1], the system named is RPMI-8226 leukemia.
Test [2] deals with MCF7 breast.
Test [3] deals with HL-60(TB) leukemia.
Test [4] has as its system MDA-MB-231 breast.
The test system of test [5] is UACC-257 melanoma.
Test [6] deals with SF-539 CNS.
The test system of test [7] is SR leukemia.
In test [8] the test system is COLO 205 colon.
For test [9], the system named is HCT-15 colon.
Test [10] concerns LOX IMVI melanoma.
Test [11] deals with SK-OV-3 ovarian.
In test [12] the test system is UO-31 renal.
The test system of test [13] is OVCAR-5 ovarian.
Test [14] deals with TK-10 renal.
The subject of test [15] is SNB-19 CNS.
The test system of test [16] is RXF 393 renal.

As for `CC(=O)c1cc(CC2Cc3cc4c(cc3C2=O)CCC4)cc2c1CCC2` (stereo unspecified), the TGI in test [1] is 69.2 µM; in [2], over 100 µM; in [3], 56.2 µM; in test [4] it was over 100 µM; in [5] it was over 100 µM; in test [6], over 100 µM. In addition, the TGI is over 100 µM in test [7]; 76.2 µM in test [8]; over 100 µM in test [9]; over 100 µM in [10]; over 100 µM in test [11]; over 100 µM in [12]. For the same compound, the TGI in test [13], in test [14] and in test [15] was over 100 µM throughout.

In the case of `COc1ccc(N=C(CS(=O)c2ccc(C)cc2)C(F)(F)F)cc1` (stereo unspecified), the TGI was over 100 µM in [2]; 50.9 µM in test [3]; over 100 µM in test [4]; over 100 µM in [5]; over 100 µM in test [6]; over 100 µM in [7]. Moreover, the TGI in [8], in test [9], in test [10], in [11], in [12] and in test [13] was over 100 µM in each case. Further, the TGI in [16], in test [14] and in test [15] was over 100 µM throughout.

Regarding `CC(NC(=O)C1CCCN1C(=O)CNC(=O)OC(C)(C)C)C(=O)O` (stereo not drawn) (Boc-Gly-Pro-Ala-OH; configuration not given here), the TGI in test [1], in [2], in test [4], in test [5], in test [6] and in test [7] was over 100 µM throughout. Further, the TGI in [8], in [9], in test [11], in test [12], in test [13] and in [16] was over 100 µM each time. For the same compound, the TGI in test [14] and in test [15] was over 100 µM in each case.

`OCC1C2CCC3(OCCO3)C12` (stereo unspecified): the TGI in test [1], in test [2], in test [4], in [5], in test [6] and in [7] was over 100 µM throughout. Besides, the TGI in test [8] is over 100 µM; in test [9] it was over 100 µM; in test [10], over 100 µM; in test [11] it was over 100 µM; in test [12] it was 29.6 µM; in [13], over 100 µM. The TGI in test [16], in test [14] and in test [15] was over 100 µM in each case.

Consider `CN1C(=O)N/C(=C\c2ccc(S(=O)(=O)N/N=C/c3ccccc3)cc2)C1=O`, for which the TGI in test [1] was over 100 µM; in test [2], 68.5 µM; in test [3] it was over 100 µM; in test [4], over 100 µM; in test [5] it was over 100 µM; in test [7], over 100 µM. The TGI in test [8], in [9], in [10], in test [11], in [12] and in test [13] was over 100 µM in each case. Also, the results for the TGI in test [16], in [14] and in test [15] were 98.1 µM, over 100 µM and over 100 µM, respectively.

Regarding `CCOc1ccc(N2C(=O)NC3(c4ccccc4)N(C)C(=O)N(C)C23c2ccccc2)cc1` (stereo unspecified), the TGI in test [1], in test [2], in test [3], in test [4], in test [5] and in [6] was over 100 µM throughout. The TGI in test [7], in test [8], in test [10], in [11], in [12] and in test [13] was over 100 µM throughout. In addition, the TGI in test [16] and in [15] was over 100 µM throughout.

Regarding `COc1ccc(C(=O)N2CCN(c3ccc4c(c3)OCC(=O)N4)CC2)cc1OC`, the TGI in test [1], in [2], in test [3], in [4], in test [5] and in [6] was over 100 µM throughout. Further, the TGI in [7], in test [8], in [9], in test [10], in test [11] and in test [12] was over 100 µM throughout. For the same compound, the TGI in [13], in [14] and in test [15] was over 100 µM throughout.

Take `CCCCCCCCCC(=O)NCCc1c[nH]c2ccc(OC)cc12`: the TGI was 67 µM in [1]; 33.7 µM in test [2]; 30.9 µM in [4]; 41.8 µM in [5]; 46 µM in test [6]; over 100 µM in test [7]. In addition, the TGI came out at 55.7 µM in test [8]; 36.2 µM in test [9]; 27.6 µM in test [10]; 31.7 µM in test [11]; 26.1 µM in test [12]; 61.2 µM in test [13]. Besides, the TGI amounted to 38 µM in test [16], 35.1 µM in test [14] and 31.2 µM in [15].

With `O=[N+]([O-])c1cnc(N(CCO)CCO)s1`, the TGI in test [2], in test [3], in [4], in [5], in [6] and in test [7] was over 100 µM in each case. Moreover, the TGI in [8], in [9], in test [10], in test [11], in test [12] and in [13] was over 100 µM throughout. Besides, the TGI in test [16] and in test [15] was over 100 µM each time.

Take `COC(O)C(=O)c1c2c(cc3c1CCC3)CCC2` (stereo unspecified): the TGI was over 100 µM in test [1]; over 100 µM in test [2]; 79.9 µM in test [3]; over 100 µM in test [4]; over 100 µM in [5]; over 100 µM in [6]. In addition, the TGI in test [7], in test [8], in test [9], in test [10], in test [11] and in [12] was over 100 µM throughout. Besides, the TGI in test [13], in test [14] and in test [15] was over 100 µM each time.

As for `COC(=O)CN=C1NC(=S)N(Cc2ccc(OC)cc2)C12CCCC2`, the TGI in test [1], in [2], in test [4], in test [5], in test [6] and in test [7] was over 100 µM in each case. For the same compound, the TGI in [8], in test [9], in [11], in test [12], in test [13] and in test [16] was over 100 µM each time. The compound also registered a TGI in test [15] of over 100 µM.

With `COc1ccc(C2CC(c3ccc(NS(=O)(=O)c4cc([N+](=O)[O-])ccc4C)cc3)=NN2S(=O)(=O)c2cc([N+](=O)[O-])ccc2C)cc1` (stereo unspecified), the TGI in [1], in [2], in [3], in test [4], in [5] and in test [7] was over 100 µM throughout. Further, the TGI in test [8], in test [9], in test [10], in test [11], in test [12] and in test [13] was over 100 µM throughout. For the same compound, the TGI in [16], in [14] and in [15] was over 100 µM in each case.

Take `Cc1ccc(NC(=O)CC(=O)N2N=C(N3CCCCC3)CC2c2ccccc2)cc1` (stereo unspecified): the TGI in test [2], in test [3], in test [4], in test [5], in test [7] and in test [8] was over 100 µM in each case. Further, the TGI in [9], in test [10], in test [12], in [13], in [16] and in test [14] was over 100 µM in each case. The compound further came in with a TGI in test [15] of over 100 µM.

On to `COC(=O)CNC(=O)CNC(=O)CSc1nnc(COc2ccc(Cl)cc2)n1-c1ccccc1`, for which the TGI in [1] is 78.1 µM; in test [2] it was over 100 µM; in [4], 39.2 µM; in test [5] it was 40.5 µM; in test [6], over 100 µM; in test [7], 86.6 µM. For the same compound, the TGI in test [8] is over 100 µM; in test [9] it was over 100 µM; in test [10], 57.7 µM; in [12], 48.6 µM; in test [13], over 100 µM; in test [16] it was 36.8 µM. The TGI in [14] and in test [15] was over 100 µM each time.

Consider `CC(NC(=O)C(N)CC(=O)O)C(=O)OC12CC3CC(CC(C3)C1)C2` (stereo unspecified), for which the TGI in [1], in test [2], in test [4], in [5], in test [7] and in [8] was over 100 µM in each case. In addition, the TGI in [9], in [10], in [11], in test [12], in test [13] and in test [16] was over 100 µM throughout. For the same compound, the TGI in test [14] and in test [15] was over 100 µM each time.

`Cc1n[nH]c(=O)n1Nc1ccccc1`: the TGI in [1], in [2], in [3], in test [4], in test [5] and in [6] was over 100 µM each time. The TGI in test [7], in test [8], in test [9], in test [10], in [11] and in test [12] was over 100 µM in each case. The TGI in test [13] and in [15] was over 100 µM each time.

`COc1ccc(C(OC(=O)[C@H](O[Si](C)(C)C(C)(C)C)[C@@H](NC(=O)c2ccccc2)c2ccccc2)c2ccc(OC)cc2)cc1`: the TGI in test [1] is 25.1 µM; in [2], over 100 µM; in [4], over 100 µM; in test [5], over 100 µM; in test [6], over 100 µM; in test [7], over 100 µM. In addition, the TGI in test [8], in [9], in test [10], in test [12], in test [13] and in test [16] was over 100 µM throughout. Moreover, the TGI in test [14] and in [15] was over 100 µM throughout.

As for `CCCCC(O)(c1ccccc1)C(O)(c1ccccc1)c1c(F)c(F)c(F)c(F)c1F` (stereo unspecified), the TGI in [1] stood at 45.6 µM; in [2], 53.1 µM; in test [3] it was 61.9 µM; in [4], 34.9 µM; in test [5], 49.1 µM; in test [7] it was 76.7 µM. For the same compound, the TGI was 30.1 µM in test [9]; over 100 µM in test [11]; 88.4 µM in test [12]; 41.1 µM in test [13]; 84.8 µM in [14]; over 100 µM in [15].

As for `Cc1cn(CC2=NC3CCCCC3N2)c(=O)[nH]c1=O` (stereo unspecified), the TGI in test [1], in test [2], in test [3], in test [4], in test [5] and in test [7] was over 100 µM in each case. Further, the TGI in test [8], in [9], in test [10], in [11], in test [12] and in [13] was over 100 µM throughout. Also, the TGI in test [16], in test [14] and in test [15] was over 100 µM throughout.

Values taken from PubChem BioAssay (NCI).
